Experimental data from US5486541A (Teva Pharmaceutical Industries, Ltd., priority 1991, dated 1996).
Entries after “also recorded” stand apart in the source; their conditions may differ. Like-named read-outs stand apart in the source and are kept apart here.

How the values were obtained:
MAO-B [1] = molecular target: T1, MAO-B (Rattus norvegicus, UniProt P19643); assay: biochemical; assay type: biochemical; details: for IC50: 20 min preincubation at 37° C., PEA 20 μM, read-out: IC50 for Inhibition of MAO-B in Brain Homogenates
T1 sequence (P19643 1-520): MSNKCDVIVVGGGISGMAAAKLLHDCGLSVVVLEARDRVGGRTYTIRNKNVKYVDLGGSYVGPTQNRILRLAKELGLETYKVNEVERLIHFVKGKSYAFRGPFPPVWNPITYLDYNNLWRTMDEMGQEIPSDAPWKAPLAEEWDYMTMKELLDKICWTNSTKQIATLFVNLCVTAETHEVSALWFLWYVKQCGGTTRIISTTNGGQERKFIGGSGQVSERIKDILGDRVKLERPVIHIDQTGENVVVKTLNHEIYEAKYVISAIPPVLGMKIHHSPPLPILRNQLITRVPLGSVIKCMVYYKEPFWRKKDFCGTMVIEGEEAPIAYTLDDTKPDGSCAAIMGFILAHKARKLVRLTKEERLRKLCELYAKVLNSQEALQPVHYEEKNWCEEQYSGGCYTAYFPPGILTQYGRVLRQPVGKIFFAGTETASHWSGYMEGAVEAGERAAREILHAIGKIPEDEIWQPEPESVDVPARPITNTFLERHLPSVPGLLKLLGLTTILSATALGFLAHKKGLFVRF

MAO-A [2] = molecular target: T2, MAO-A (Rattus norvegicus, UniProt P21396); assay: biochemical; details: rat brain homogenate; 20 min preincubation at 37° C.; 5-HT 1 mM; read-out: IC50 for Inhibition of MAO-A in Brain Homogenates
T2 sequence (P21396 1-526): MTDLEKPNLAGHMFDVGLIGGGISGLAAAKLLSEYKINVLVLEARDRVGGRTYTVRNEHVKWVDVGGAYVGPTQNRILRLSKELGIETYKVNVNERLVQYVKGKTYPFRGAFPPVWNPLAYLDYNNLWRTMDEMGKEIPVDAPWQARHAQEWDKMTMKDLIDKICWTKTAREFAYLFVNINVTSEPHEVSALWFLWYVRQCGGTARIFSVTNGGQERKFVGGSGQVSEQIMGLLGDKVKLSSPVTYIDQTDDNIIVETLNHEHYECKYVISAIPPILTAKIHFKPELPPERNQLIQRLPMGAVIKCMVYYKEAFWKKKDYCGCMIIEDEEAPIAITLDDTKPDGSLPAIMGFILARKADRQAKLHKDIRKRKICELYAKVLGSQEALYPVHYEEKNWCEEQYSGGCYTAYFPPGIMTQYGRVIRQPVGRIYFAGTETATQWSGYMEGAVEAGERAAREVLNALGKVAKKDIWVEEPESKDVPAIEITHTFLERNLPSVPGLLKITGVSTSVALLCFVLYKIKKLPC

MAO-B [3] = assay: Inhibition of MAO Activity Ex-vivo: Acute Treatment, brain, MAO-B; assay type: in vivo, rat (male Sprague-Dawley derived); details: for ED-50 BRAIN MAO-B: rat, ip or po, 2 hours after dosing; for BRAIN MAO-A/MAO-B (measure of selectivity): ratio of ED-50 values, rat brain, ex vivo
MAO-A [4] = assay: Inhibition of MAO Activity Ex-vivo: Acute Treatment, brain, MAO-A; assay type: in vivo, rat (male Sprague-Dawley derived); details: rat, ip or po, 2 hours after dosing
MAO-B [5] = assay: Inhibition of MAO Activity Ex-vivo: Acute Treatment, liver, MAO-B; assay type: in vivo, rat (male Sprague-Dawley derived); details: for ED-50 LIVER MAO-B: rat, ip or po, 2 hours after dosing; for LIVER MAO-A/MAO-B (measure of selectivity): ratio of ED-50 values, rat liver, ex vivo
Description: (§1) These experiments were performed essentially according to the protocol of K. F. Tipton and M. B. H. Youdim in CIBA Symposium No. 39, Editors: G. E. W. Wolstenholme and J. Knight, Elsevier, Amsterdam, 1976, pp. 393-403. The MAO enzyme source was a homogenate of rat brain in 0.3M sucrose which was centrifuged at 600 g for 15 minutes. The supernatant was diluted appropriately in 0.05M phosphate buffer and preincubated with serial dilutions of compounds of interest which are listed below for 20 minutes at 37° C. ^14 C-labeled substrates (2-phenylethylamine, hereinafter PEA; 5-hydroxytryptamine, hereinafter 5-HT) were then added and the incubation continued for a further 20 minutes (PEA) or 30-45 minutes (5-HT). Substrate concentrations used were 20 μM (PEA) or 1 mM (5-HT). In the case of PEA the enzyme concentration was chosen so that not more than 10% of the substrate was metabolized during the course of the reaction. The reaction was then stopped by the addition of tranylcypromine (to final concentration of 1 mM) and the incubate filtered over a small column of Amberlite CG-50; buffered to pH 6.3. The column was washed with 1.5 ml water, the eluates pooled and the radioactive content determined by liquid scintillation spectrometry. Since the amine substrates are totally retained on the column, radioactivity in the eluate indicates the production of neutral and acidic metabolites formed as a result of MAO activity. Activity of MAO in the sample was expressed as a percentage of control activity in the absence of inhibitors after subtraction of appropriate blank values. The activity determined using PEA as a substrate is referred to as MAO B activity, and that determined using 5-HT as a substrate is referred to as MAO A activity.
(§2) Rats (male Sprague-Dawley derived) weighing 250±20 g were treated with the desired compound by intraperitoneal injection (ip) or oral gavage (po) and decapitated 2 hours later. Groups of three rats were used for each dose level of the compound and MAO activity was determined in the brain and liver using the general technique described above. The amount of protein in each incubation was determined using the Folin-Lowry method, and enzyme activity was calculated as nmol substrate metabolized per hour incubation for each mg protein. Activity of MAO in tissues from animals treated with inhibitors was expressed as a percentage of the enzyme activity in a group of control animals which were administered the vehicle alone (water in the case of oral gavage, or 0.9% saline in the case of intraperitoneal injection) and killed as above.

MAO-A [6] = assay: Inhibition of MAO Activity Ex-vivo: Acute Treatment, liver, MAO-A; assay type: in vivo, rat (male Sprague-Dawley derived); details: rat, ip or po, 2 hours after dosing
Description: as §1, §2

[7] = test system: blood pressure response to tyramine; assay: Tyramine Potentiation in Vivo (blood pressure response to tyramine); parameters: species or system rat; details: for Potentiation of blood pressure response to tyramine: compound 5 mg/kg orally, tyramine 20 mg/kg orally, ratio of areas under the curve of blood pressure
Description: On the previous day a tail artery cannulation was performed to enable direct blood pressure measurements. On the experimental day the cannulae were connected to pressure transducers. The animals were unrestrained and were kept in a glass sided open top tank during the pressure measurements. […] The desired compound was administered 30 minutes after the last dose of tyramine. Tyramine was administered again, in increasing doses, as described above, one hour after the desired compound was administered. […] The tyramine potentiating effect was calculated as a ratio between the areas under the curve of blood pressure measured with tyramine alone (20 mg/kg) and that measured after administration of the desired compounds and tyramine.

[8] = at doses causing nearly complete inhibition of MAO-B; Elsworth et al.; cited from earlier work
Parkinson's patients = details: with L-Dopa (and decarboxylase inhibitor); cited from earlier work
[9] = ratio IC50 MAO-A / IC50 MAO-B, rat brain homogenate

Row | SMILES | IC50 (MAO-B [1]; rat brain homogenate) [nM] | Selectivity MAO-A/MAO-B (in vitro IC50) (MAO-B [1]; [9]) | IC50 (MAO-A [2]) [nM] | ED-50 BRAIN MAO-B (MAO-B [3]) [mg/kg] | BRAIN MAO-A/MAO-B (measure of selectivity) (MAO-B [3]) | ED-50 BRAIN MAO-A (MAO-A [4]) [mg/kg] | LIVER MAO-A/MAO-B (measure of selectivity) (MAO-B [5]) | ED-50 LIVER MAO-A (MAO-A [6]) [mg/kg] | Potentiation of blood pressure response to tyramine [7] [fold] | also measured
1 | C#CCNC1CCc2c(F)cc(F)cc21 (single isomer, unassigned; (+)) [(+)-4,6-Difluoro] | 500 | 2 | 800 | 3.7 | 1 | 2.9 | – | – | – | –
2 | C#CCNC1CCc2ccc(F)cc21.Cl (single isomer, unassigned; (+)) [(+)-6-F, (+)-6-Fluoro-N-propargyl-1-aminoindan hydrochloride] | 0.22 | – | 2800 | – | – | – | 40 | 5.2 | 1.2 | Selectivity MAO-A/MAO-B (in vitro IC50) (MAO-B [1]): 1244; MAO-B selectivity in vitro (in words) (MAO-B [1]; in vitro): much more selective than the parent non-fluorinated compound and more selective than the other fluorinated derivatives; ED-50 BRAIN MAO-B (MAO-B [3]; hydrochloride, 120 min): 0.14 mg/kg; ED-50 BRAIN MAO-B (MAO-B [3]; listed as (+)-6-F-N-propargyl-1-aminoindan, hydrochloride, 120 min): 0.14 mg/kg; BRAIN MAO-A/MAO-B (measure of selectivity) (MAO-B [3]; hydrochloride): 152; ED-50 BRAIN MAO-A (MAO-A [4]; hydrochloride, 120 min): 21.3 mg/kg; ED-50 LIVER MAO-B (MAO-B [5]; hydrochloride, 120 min): 0.13 mg/kg; tyramine potentiating effect (in words) ([7]; rat, 5 mg/kg oral, listed as (+)-6-F-N-propargyl-1-aminoindan, hydrochloride, 5 mg/kg): lowest potentiating effect as compared to the (+)-5-F and (+)-4-F derivatives; also recorded: does not cause significant potentiation of tyramine; also recorded: a dose 35 times higher results practically in no tyramine potentiation
3 | NCCc1ccc(O)cc1 [Tyramine, reference compound] | – | – | – | – | – | – | – | – | – | effect of tyramine alone on blood pressure (in words) ([7]; tyramine alone, oral, 5, 10 and 20 mg/kg): caused increase of blood pressure
4 | C#CCNC1CCc2cc(F)ccc21.Cl (single isomer, unassigned; (+)) [(+)-5-F, (+)-5-Fluoro-N-propargyl-1-aminoindan hydrochloride] | 5.7 | 24 | 140 | 0.07 | > 1.4 | > 0.1 | > 1.4 | > 0.1 | 2.25 | ED-50 LIVER MAO-B (MAO-B [5]): 0.07 mg/kg
5 | C#CCNC1CCc2ccc(F)cc21 (centres unmarked) [Example 6-F, 6-Fluoro-1-propargylaminoindan] | 6.2 | 645 | 4000 | 0.13 | 170 | 22 | – | – | – | –
6 | C#CCN(C)[C@H](C)Cc1ccccc1 [(-)-deprenyl] | – | – | – | – | – | – | – | – | – | "cheese effect" of (-)-deprenyl (in words) [8]: not causing the "cheese effect"; clinical effect on addition to L-Dopa treatment (in words) (Parkinson's patients): improvements in akinesia and overall functional capacity as well as the elimination of "on-off" type fluctuations; also recorded: enhances and prolongs the effect of L-Dopa
